Assay results as given in patent US8410065B2, “Macrolides and their use” (Basilea Pharmaceutica AG, priority 2008, dated 2013).

Tested on: human PDE4
Experiment: PDE4 inhibition, in vitro enzymatic IMAP FP assay
Assay type: biochemical
Details: PDE4 partially purified from undifferentiated human monocytic cells (U-937); fluorescently labeled cAMP substrate; 90 minutes at room temperature; fluorescence polarization
Method: PDE4 specifically hydrolyzes cAMP and releases the product AMP. The potency of PDE inhibition by said agents is determined in an in vitro enzymatic assay. The assay is commercially available (IMAP™ FP assay Molecular Devices Corp. (MDS)) and is optimized for the use of human PDE4. Fluorescently labeled cAMP is hydrolyzed by PDE4 and in a second step, binding of labeled product to a large binding partner allowed product detection by fluorescence polarization (FP) measurements.
PDE4 is partially purified from undifferentiated human monocytic cells (U-937) according to Thorpy et al. 1992 (J. Pharmacol. Exp. Ther. 263: 1195). […] In addition, PDE4 preparations are validated by inhibition studies with PDE4-specific and unspecific PDE inhibitors.
Stock solutions of test compounds are made in DMSO and diluted in assay buffer (10 mM Tris-HCl, 10 mM MgCl2, 0.1% BSA 0.05% NaN3, pH 7.2) to the desired concentrations. The solutions used in the assay contained test compound in assay buffer with 2% DMSO.
10 μl of substrate (at a concentration recommended by the manufacturer) are mixed with 5 μl of appropriately diluted PDE and 5 μl of test compound solution. 5 μl of reaction buffer with 2% DMSO are used for control reactions. […] After incubation for 90 minutes at room temperature, 60 μl of binding reagent are added as specified by the manufacturer. Binding is allowed to proceed for 30 minutes and fluorescence polarization is measured. Dose dependence of PDE inhibition is measured by assaying dilution series of test compounds in duplicates. IC50 values are determined from the measured activities by curve fitting.

SMILES	IC50 [nM]
CC[C@H]1OC(=O)[C@H](C)[C@@H](O[C@H]2C[C@@](C)(OC)[C@@H](O)[C@H](C)O2)[C@H](C)[C@@H](O[C@@H]2O[C@H](C)C[C@H](N(C)CC(C)C)[C@H]2O)[C@](C)(OC)C[C@@H](C)C(=O)[C@H](C)[C@H]2[C@H](SCCN(C(=O)c3ccncc3)c3ccc(OC)c(OC4CCCC4)c3)C(=O)O[C@@]21C (stereo in doubt) [Example 3]	13600
CC[C@H]1OC(=O)[C@H](C)[C@@H](O[C@H]2C[C@@](C)(OC)[C@@H](O)[C@H](C)O2)[C@H](C)[C@@H](O[C@@H]2O[C@H](C)C[C@H](N(C)C(=O)N3CCOCC3)[C@H]2O)[C@](C)(OC)C[C@@H](C)C(=O)[C@H](C)[C@H]2[C@H](SCCCOc3cc(C(=O)Nc4c(Cl)cncc4Cl)ccc3OC)C(=O)O[C@@]21C (stereo in doubt) [Example 16]	220
CC[C@H]1OC(=O)[C@H](C)[C@@H](O[C@H]2C[C@@](C)(OC)[C@@H](O)[C@H](C)O2)[C@H](C)[C@@H](O[C@@H]2O[C@H](C)C[C@H](N(C)CC(C)C)[C@H]2O)[C@](C)(OC)C[C@@H](C)C(=O)[C@H](C)[C@H]2[C@H](SCCn3cnc4c(N)ncnc43)C(=O)O[C@@]21C (stereo in doubt) [Example 2]	2800
CC[C@H]1OC(=O)[C@H](C)[C@@H](O[C@H]2C[C@@](C)(OC)[C@@H](O)[C@H](C)O2)[C@H](C)[C@@H](O[C@@H]2O[C@H](C)C[C@@H](OC)[C@@H]2N(C)C)[C@](C)(OC)C[C@@H](C)C(=O)[C@H](C)[C@H]2[C@H](SCCN(Cc3ccncc3)c3ccc(OC)c(OC4CCCC4)c3)C(=O)O[C@@]21C (stereo in doubt) [Example 6]	1400
CC[C@H]1OC(=O)[C@H](C)[C@@H](O)[C@H](C)[C@@H](O[C@@H]2O[C@H](C)C=C[C@H]2O)[C@](C)(OC)C[C@@H](C)C(=O)[C@H](C)[C@H]2[C@H](SCCn3cnc4c(N)ncnc43)C(=O)O[C@@]21C (stereo in doubt) [Example 1]	4800
CC[C@H]1OC(=O)[C@H](C)[C@@H](O)[C@H](C)[C@@H](O[C@@H]2O[C@H](C)C[C@H](N(C)C)[C@H]2OC)[C@](C)(OC)C[C@@H](C)C(=O)[C@H](C)[C@H]2[C@H](SCCN(Cc3c(Cl)cncc3Cl)c3ccc(OC)c(OC4CCCC4)c3)C(=O)O[C@@]21C (stereo in doubt) [Example 9]	300

Results, then the compound that gave them:

IC50 [nM]	SMILES
31	CC[C@H]1OC(=O)[C@H](C)[C@@H](O[C@H]2C[C@@](C)(OC)[C@@H](O)[C@H](C)O2)[C@H](C)[C@@H](O[C@@H]2O[C@H](C)C[C@H](N(C)C(C)=O)[C@H]2O)[C@](C)(OC)C[C@@H](C)C(=O)[C@H](C)[C@H]2[C@H](SCCN(Cc3c(Cl)cncc3Cl)c3ccc(OC)c(OC4CCCC4)c3)C(=O)O[C@@]21C [Example 10]
220	CC[C@H]1OC(=O)[C@H](C)[C@@H](O)[C@H](C)[C@@H](O[C@@H]2O[C@H](C)C[C@@H](N3CCOCC3)[C@@H]2N(C)C)[C@](C)(OC)C[C@@H](C)C(=O)[C@H](C)[C@H]2[C@H](SCCN(Cc3c(Cl)cncc3Cl)c3ccc(OC)c(OC4CCCC4)c3)C(=O)O[C@@]21C (stereo in doubt) [Example 12]
2.7	CC[C@H]1OC(=O)[C@H](C)[C@@H](O[C@H]2C[C@@](C)(OC)[C@@H](O)[C@H](C)O2)[C@H](C)[C@@H](O[C@@H]2O[C@H](C)C[C@H](N(C)C(C)=O)[C@H]2O)[C@](C)(OC)C[C@@H](C)C(=O)[C@H](C)[C@H]2[C@H](SCCOc3cc(C(=O)Nc4c(Cl)cncc4Cl)ccc3OC)C(=O)O[C@@]21C (stereo in doubt) [Example 14]
220	CC[C@H]1OC(=O)[C@H](C)[C@@H](O)[C@H](C)[C@@H](O[C@@H]2O[C@H](C)C[C@@H](OC)[C@@H]2N(C)C)[C@](C)(OC)C[C@@H](C)C(=O)[C@H](C)[C@H]2[C@H](SCCN(Cc3c(Cl)cncc3Cl)c3ccc(OC)c(OC4CCCC4)c3)C(=O)O[C@@]21C (stereo in doubt) [Example 8]
140	CC[C@H]1OC(=O)[C@H](C)[C@@H](O[C@H]2C[C@@](C)(OC)[C@@H](O)[C@H](C)O2)[C@H](C)[C@@H](O[C@@H]2O[C@H](C)C[C@@H](OC)[C@@H]2N(C)C)[C@](C)(OC)C[C@@H](C)C(=O)[C@H](C)[C@H]2[C@H](SCCN(Cc3c(Cl)cncc3Cl)c3ccc(OC)c(OC4CCCC4)c3)C(=O)O[C@@]21C (stereo in doubt) [Example 7]
110	CC[C@H]1OC(=O)[C@H](C)[C@@H](O[C@H]2C[C@@](C)(OC)[C@@H](O)[C@H](C)O2)[C@H](C)[C@@H](O[C@@H]2O[C@H](C)C[C@@H](OC)[C@@H]2N(C)C)[C@](C)(OC)C[C@@H](C)C(=O)[C@H](C)[C@H]2[C@H](SCCn3cnc4c(N)ncc(C(=O)Nc5c(Cl)cncc5Cl)c43)C(=O)O[C@@]21C (stereo in doubt) [Example 5]
